ChEMBL document CHEMBL4715817, “Python Cathelicidin CATHPb1 Protects against Multidrug-Resistant Staphylococcal Infections by Antimicrobial-Immunomodulatory Duality” (J Med Chem, 2018)
Calls of active or inactive are those of the source. Peptide text beside a SMILES is read from it.

Tests used:
Staphylococcus aureus [1] = experiment: Antibacterial activity against FITC-labelled Staphylococcus aureus ATCC 25923 infected in neutrophil cells assessed as entrapment of bacteria by NET releasing neutrophil at 20 to 40 ug/ml by fluorescence analysis; type: functional, organism-based; conditions: dose 20-40 µg/ml
Escherichia coli [2] = experiment: Antimicrobial activity against Escherichia coli IS 08032813 incubated for 16 to 18 hrs by fluorescence microplate reader analysis; type: functional; conditions: time 16-18 hrs
Pseudomonas aeruginosa [3] = experiment: Antimicrobial activity against Pseudomonas aeruginosa IS 08031014 incubated for 16 to 18 hrs by fluorescence microplate reader analysis; type: functional; conditions: time 16-18 hrs
[4] = biological target: Mitogen-activated protein kinase 1 and 3 (ERK2 and ERK1) (Mus musculus) (UniProt P63085+Q63844); experiment: Inhibition of LPS-induced phosphorylation of Erk1/2 in mouse peritoneal macrophage pretreated for 1 hr followed by LPS stimulation measured after 30 mins by Western blot analysis; type: tissue-based; conditions: dose 5-20 µg/ml, time 1.5 hrs
[5] = Toxicity in Kunming mouse assessed as effect on MCP-1 levels at 10 mg/kg, ip measured after 5 hrs by ELISA; type: organism-based; conditions: in vivo
Macrophage [6] = experiment: Immunomodulatory activity in mouse peritoneal macrophage assessed as inhibition of LPS-induced IL-1beta level measured after 6 hrs by qRT-PCR analysis; type: functional, tissue-based; conditions: dose 5-20 µg/ml
Staphylococcus aureus [7] = experiment: In vivo antibacterial activity against vancomycin resistant Staphylococcus aureus infected in kunming mouse assessed as reduction in bacterial load in peritoneum at 10 mg/kg, ip measured 18 hrs after infection; type: functional, organism-based
Macrophage [8] = experiment: Immunomodulatory activity in mouse peritoneal macrophage assessed as inhibition of LPS-induced MCP-1 level measured after 24 hrs by ELISA; type: functional, tissue-based; conditions: dose 5-20 µg/ml
Escherichia coli [9] = experiment: Antibiofilm activity against Escherichia coli assessed as biofilm eradication at BIC-5 by XTT and crystal violet staining assay relative to control; type: functional
Mus musculus [10] = experiment: Immunomodulatory activity in Kunming mouse infected with vancomycin-resistant Staphylococcus aureus assessed as decreased in IL-6 level in peritoneal lavage at 10 mg/kg, ip administered 4 hrs after infection by ELISA; type: functional, organism-based
Neutrophil [11] = experiment: Immunomodulatory activity in neutrophils (unknown origin) assessed as increase in CXCL1/KC level at 20 ug/ml measured after 12 hrs by ELISA; type: functional, cell-based; conditions: dose 20.0 µg/ml
Macrophage [12] = experiment: Inhibition of LPS-induced phosphorylation of p38 in mouse peritoneal macrophage pretreated for 1 hr followed by LPS stimulation measured after 30 mins by Western blot analysis; type: tissue-based; conditions: dose 5-20 µg/ml, time 1.5 hrs
Macrophage [13] = experiment: Immunomodulatory activity in mouse peritoneal macrophage assessed as inhibition of LPS-induced IL-1beta level measured after 24 hrs by ELISA; type: functional, tissue-based; conditions: dose 5-20 µg/ml
Nocardia asteroides = experiment: Antimicrobial activity against Nocardia asteroids incubated for 16 to 18 hrs by fluorescence microplate reader analysis; type: functional; conditions: time 16-18 hrs
Nakaseomyces glabratus = experiment: Antimicrobial activity against Candida glabrata IS 08A802 incubated for 16 to 18 hrs by fluorescence microplate reader analysis; type: functional; conditions: time 16-18 hrs
Candida albicans = experiment: Antimicrobial activity against Candida albicans IS 08030401 incubated for 16 to 18 hrs by fluorescence microplate reader analysis; type: functional; conditions: time 16-18 hrs
Macrophage [14] = experiment: Inhibition of LPS-induced phosphorylation of p38 in mouse peritoneal macrophage at 20 ug/ml pretreated for 1 hr followed by LPS stimulation measured after 30 mins by Western blot analysis relative to control; type: tissue-based; conditions: dose 20.0 µg/ml, time 1.5 hrs
[15] = Toxicity in Kunming mouse assessed as effect on IL-1beta levels at 10 mg/kg, ip measured after 5 hrs by ELISA; type: organism-based; conditions: in vivo
Mus musculus [16] = experiment: Immunomodulatory activity in Kunming mouse infected with vancomycin-resistant Staphylococcus aureus assessed as increased in MCP-1 level in peritoneal lavage at 10 mg/kg, ip administered 4 hrs after infection by ELISA; type: functional, organism-based
[17] = Induction of neutrophil extracellular trap formation in neutrophil (unknown origin) at 40 ug/ml measured after 3 hrs by fluorescence analysis; type: functional; conditions: dose 40 µg/ml
Mus musculus [18] = experiment: Immunomodulatory activity in Kunming mouse infected with vancomycin-resistant Staphylococcus aureus assessed as effect number of inflammatory monocytes in peritoneal cavity at 10 mg/kg, ip measured upto 24 hrs by flow cytometry; type: functional, organism-based; conditions: time hrs <=24
Mus musculus [19] = experiment: Immunomodulatory activity in mouse assessed as increase number of neutrophil in peritoneal cavity at 10 mg/kg, ip measured after 5 to 24 hrs by flow cytometry; type: functional, organism-based; conditions: time 5-24 hrs
Macrophage [20] = experiment: Immunomodulatory activity in mouse peritoneal macrophage assessed as inhibition of LPS-induced TNF-alpha level measured after 6 hrs by qRT-PCR analysis; type: functional, tissue-based; conditions: dose 5-20 µg/ml
Neutrophil [21] = experiment: Immunomodulatory activity in neutrophils (unknown origin) assessed as inhibition of LPS-induced TNF-alpha level at 5 to 20 ug/ml by ELISA; type: functional, cell-based; conditions: dose 5-20 µg/ml
Klebsiella oxytoca = experiment: Antibiofilm activity against Klebsiella oxytoca assessed as biofilm eradication at BIC-5 by XTT and crystal violet staining assay relative to control; type: functional
Staphylococcus aureus [22] = experiment: Antibacterial activity against vancomycin-resistant Staphylococcus aureus assessed as neutrophil-induced bacterial cell killing neutrophils pretreated with compound at 10 to 40 ug/ml; type: functional, organism-based; conditions: dose 10-40 µg/ml, time 15-60 min, TDE = time-dependent effect
[23] = Toxicity in Kunming mouse assessed as effect on IL-10 levels at 10 mg/kg, ip measured after 5 hrs by ELISA; type: organism-based; conditions: in vivo
Staphylococcus aureus [24] = experiment: In vivo antibacterial activity against methicillin resistant Staphylococcus aureus IS 08032712 infected in kunming mouse assessed as increase in survival rate at 10 mg/kg, ip administered 4 hrs after infection and measured up to 7 days after infection; type: functional, organism-based; conditions: time day <=7
Staphylococcus aureus [25] = experiment: In vivo antibacterial activity against vancomycin resistant Staphylococcus aureus infected in kunming mouse assessed as reduction in bacterial load in spleen at 10 mg/kg, ip administered 24 hrs before infection; type: functional, organism-based
Salmonella paratyphi = experiment: Antimicrobial activity against Salmonella paratyphi IS 738 incubated for 16 to 18 hrs by fluorescence microplate reader analysis; type: functional, Salmonella enterica subsp. enterica serovar Paratyphi A; conditions: Salmonella enterica, time 16-18 hrs
[26] = Cytotoxicity against mouse peritoneal macrophage assessed as cell death at 100 ug/ml by MTT assay; type: tissue-based
[27] = Immunomodulatory activity in mouse peritoneal macrophage assessed as increase in MCP-1 mRNA level at 20 ug/ml measured after 6 hrs by qRT-PCR analysis relative to control; type: functional; conditions: dose 20 µg/ml
Staphylococcus aureus [28] = experiment: In vivo antibacterial activity against vancomycin resistant Staphylococcus aureus infected in ip dosed kunming mouse assessed as increase in survival rate administered 4 hrs after infection and measured up to 7 days after infection; type: functional, organism-based; conditions: dose 5-20 mg/kg, time day <=7
Pseudomonas aeruginosa [29] = experiment: Antibiofilm activity against Pseudomonas aeruginosa assessed as biofilm eradication at BIC-5 by XTT and crystal violet staining assay relative to control; type: functional
Mus musculus [30] = experiment: Immunomodulatory activity in mouse assessed as increase […] of KC in peritoneal cavity at 10 mg/kg, ip measured after 5 to 24 hrs by ELISA; type: functional, organism-based; conditions: time 5-24 hrs
Staphylococcus aureus [31] = experiment: In vivo antibacterial activity against vancomycin resistant Staphylococcus aureus infected in kunming mouse assessed as reduction in bacterial load in peritoneal lavage at 10 mg/kg, ip administered 4 hrs after infection; type: functional, organism-based

Chain of Mitogen-activated protein kinase 1 and 3 (ERK2 and ERK1) (Mus musculus) (P63085 whole entry, looked up): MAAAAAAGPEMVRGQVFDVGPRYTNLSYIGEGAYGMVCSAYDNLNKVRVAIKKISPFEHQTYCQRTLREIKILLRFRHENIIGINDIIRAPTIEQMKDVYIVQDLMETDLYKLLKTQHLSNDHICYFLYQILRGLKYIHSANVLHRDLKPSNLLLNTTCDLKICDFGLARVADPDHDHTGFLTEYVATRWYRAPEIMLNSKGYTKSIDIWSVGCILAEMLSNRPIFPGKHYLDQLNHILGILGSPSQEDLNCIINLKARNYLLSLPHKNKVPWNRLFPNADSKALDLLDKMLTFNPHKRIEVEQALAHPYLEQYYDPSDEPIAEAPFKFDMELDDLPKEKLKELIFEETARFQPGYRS
Chain of Mitogen-activated protein kinase 1 and 3 (ERK2 and ERK1) (Mus musculus) (Q63844 whole entry, looked up): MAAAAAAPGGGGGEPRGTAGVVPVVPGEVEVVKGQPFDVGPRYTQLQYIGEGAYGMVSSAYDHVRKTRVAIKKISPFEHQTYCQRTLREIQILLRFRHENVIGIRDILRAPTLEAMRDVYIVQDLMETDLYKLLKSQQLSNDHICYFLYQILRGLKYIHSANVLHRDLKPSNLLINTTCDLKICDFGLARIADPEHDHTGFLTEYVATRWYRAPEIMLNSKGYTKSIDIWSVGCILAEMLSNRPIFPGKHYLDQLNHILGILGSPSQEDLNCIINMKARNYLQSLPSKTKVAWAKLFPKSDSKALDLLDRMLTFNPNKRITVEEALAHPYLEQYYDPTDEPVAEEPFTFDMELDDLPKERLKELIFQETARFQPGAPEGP

CC[C@H](C)[C@H](NC(=O)[C@@H]1CCCN1C(=O)[C@@H](NC(=O)[C@@H](NC(=O)CNC(=O)CNC(=O)[C@@H](NC(=O)[C@H](Cc1ccccc1)NC(=O)[C@@H](NC(=O)[C@H](CCCCN)NC(=O)[C@@H](NC(=O)[C@H](CCCCN)NC(=O)[C@H](CCCCN)NC(=O)[C@H](Cc1ccccc1)NC(=O)[C@@H](NC(=O)[C@H](CCCCN)NC(=O)[C@H](CCCNC(=N)N)NC(=O)[C@H](Cc1ccccc1)NC(=O)CNC(=O)[C@H](CCCCN)NC(=O)[C@H](CCCCN)NC(=O)[C@@H](NC(=O)[C@H](CCCCN)NC(=O)[C@H](CCCNC(=N)N)NC(=O)[C@H](Cc1ccccc1)NC(=O)[C@H](Cc1ccccc1)NC(=O)[C@H](CCCCN)NC(=O)[C@H](CCCCN)NC(=O)[C@H](Cc1ccccc1)NC(=O)[C@H](CCCNC(=N)N)NC(=O)[C@@H](N)CCCCN)[C@@H](C)CC)[C@@H](C)CC)[C@@H](C)O)[C@@H](C)CC)[C@@H](C)CC)[C@@H](C)O)[C@@H](C)CC)C(=O)O (H-KRFKKFFRKIKKGFRKIFKKTKIFIGGTIPI-OH)
active: Activity (Staphylococcus aureus [1]) | inhibition [4] Dose-dependent effect | inhibition (Macrophage [6]) Dose-dependent effect | Activity (Staphylococcus aureus [7]) | inhibition (Macrophage [8]) Dose-dependent effect | Activity (Mus musculus [10]) | Activity (Neutrophil [11]) | inhibition (Macrophage [12]) Dose-dependent effect | inhibition (Macrophage [13]) Dose-dependent effect | Activity (Mus musculus [16]) | Activity (Mus musculus [19]) | inhibition (Macrophage [20]) Dose-dependent effect | inhibition (Neutrophil [21]) | Activity (Staphylococcus aureus [22]) Tde | Activity (Staphylococcus aureus [24]) | Activity (Staphylococcus aureus [25]) | Activity (Staphylococcus aureus [28]) Dose-dependent effect | Activity (Mus musculus [30]) | Activity (Staphylococcus aureus [31])
13: fold change (FC) [27]
65.98%: Activity (Escherichia coli [9])
41.16%: Activity [17]
62.23%: Activity (Pseudomonas aeruginosa [29])
Non-Toxic: Activity [5] | Activity [15] | Activity [23]
6.46%: Activity [26]
92%: inhibition (Macrophage [14])
75.31%: Activity (Klebsiella oxytoca)
1.17 µg/mL: MIC (Escherichia coli [2]) | MIC (Pseudomonas aeruginosa [3]) | MIC (Nocardia asteroides) | MIC (Nakaseomyces glabratus) | MIC (Candida albicans) | MIC (Salmonella paratyphi)
inactive: Activity (Mus musculus [18])
